Measured values as given in US20060154243A1 (priority 2003, published 2006).

What was measured:
Type in all cases: binding, human
[1] = system: serum 1a (individual 1, early serum)
[2] = system: serum 1b (individual 1, late serum)
[3] = system: serum 2 (individual 2)
[4] = system: serum 6 (individual 6)
[5] = system: serum 37 (individual 37)
[6] = system: serum 62 (individual 62)
[7] = system: serum London
[8] = system: serum SARS-yellow
[9] = system: serum SARS-green
[10] = system: control serum LUMC (pooled serum of ten healthy hospital workers)
[11] = system: control serum Blood-bank (commercial negative donor pooled serum)

Sequence	Binding of serum 1a to linear peptides of Orf14 of SARS-CoV TOR2 [1]	Binding of serum 1b to linear peptides of Orf14 of SARS-CoV TOR2 [2]	Binding of serum 2 to linear peptides of Orf14 of SARS-CoV TOR2 [3]	Binding of serum 6 to linear peptides of Orf14 of SARS-CoV TOR2 [4]	Binding of serum 37 to linear peptides of Orf14 of SARS-CoV TOR2 [5]	Binding of serum 62 to linear peptides of Orf14 of SARS-CoV TOR2 [6]	Binding of serum London to linear peptides of Orf14 of SARS-CoV TOR2 [7]	Binding of serum SARS-yellow to linear peptides of Orf14 of SARS-CoV TOR2 [8]	Binding of serum SARS-green to linear peptides of Orf14 of SARS-CoV TOR2 [9]	Control serum LUMC linear peptides [10]	Control serum LUMC looped peptides [10]	Control Serum Blood-Bank Looped peptides [11]	Control serum Blood-bank linear peptides [11]
PHHVVAVIQEIQLLA	0.4	0.3	0.4	0.4	0.5	0.3	0.3	0.4	0.2	0.5	0.6	0.5	0.4
PLLAPHHVVAVIQEI	0.5	0.4	0.4	0.4	0.6	0.4	0.5	0.4	0.2	0.5	0.6	0.6	0.4
QEIQLLAAVGEILLL	0.5	0.4	0.5	0.4	0.6	0.4	0.3	0.5	0.2	0.7	0.5	0.6	0.4
QLLAAVGEILLLEWL	0.5	0.4	0.4	0.3	0.6	0.4	0.4	0.4	0.1	0.6	0.5	0.6	0.4
QREAEAAVKPLLAPH	0.4	0.3	0.4	0.5	0.4	0.3	0.4	0.2	0.3	0.4	0.7	0.7	0.4
REAEAAVKPLLAPHH	0.5	0.3	0.4	0.3	0.5	0.3	0.4	0.2	0.1	0.3	0.6	0.7	0.2
TQREAEAAVKPLLAP	0.4	0.2	0.4	0.4	0.4	0.3	0.4	0.2	0.3	0.4	0.7	0.8	0.4
